The assay deals with T1, Neutrophil elastase (Homo sapiens, UniProt P08246).
T1 sequence (P08246 whole entry): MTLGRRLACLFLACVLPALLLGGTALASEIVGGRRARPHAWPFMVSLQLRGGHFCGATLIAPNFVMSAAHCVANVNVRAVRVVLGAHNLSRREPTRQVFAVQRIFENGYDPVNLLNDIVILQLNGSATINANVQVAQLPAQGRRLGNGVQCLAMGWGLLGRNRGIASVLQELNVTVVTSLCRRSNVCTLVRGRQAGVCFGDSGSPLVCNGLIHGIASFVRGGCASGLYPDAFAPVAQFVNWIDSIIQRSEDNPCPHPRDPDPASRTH
In words: In vitro inhibitory activity against human leukocyte elastase was determined.

Usually Ki stands for a dissociation constant, usually derived from enzyme kinetics or from competition with a known ligand. The IC50 is the concentration at which inhibition is half-maximal. The low end stands for inhibition by little substance, the high end for a need for much substance.

`COc1ccc(C(=O)N[C@H](C(=O)N2CCC[C@H]2C(=O)N[C@H](C(=O)C(F)(F)CNC(=O)OC(C)(C)C)C(C)C)C(C)C)cc1` had a Ki of 3.4 nM. Take `CC(C)[C@H](NC(=O)OCc1ccccc1)C(=O)N1CCC[C@H]1C(=O)N[C@H](C(=O)C(F)(F)C(N)=O)C(C)C`: the Ki turned out to be 0.38 nM. In turn, `CNC(=O)C(F)(F)C(=O)[C@@H](NC(=O)[C@@H]1CCCN1C(=O)[C@@H](NC(=O)Oc1ccccc1)C(C)C)C(C)C` displayed an inhibition constant Ki of 0.85 nM. On the same count and under the same terms, as for `CC(C)[C@H](NC(=O)Oc1ccccc1)C(=O)N1CCC[C@H]1C(=O)N[C@H](C(=O)C(F)(F)CNCc1ccccc1)C(C)C`, the figure is 4.1 nM; as for `CC(C)[C@H](NC(=O)OCc1ccccc1)C(=O)N1CCC[C@H]1C(=O)N[C@H](C(=O)C(F)(F)CN)C(C)C`, 130 nM; as for `CC(C)[C@H](NC(=O)Oc1ccccc1)C(=O)N1CCC[C@H]1C(=O)N[C@H](C(=O)C(F)(F)CNC(=O)OC(C)(C)C)C(C)C`, 0.39 nM. On the same count and under the same terms, as for `CC(C)[C@H](NC(=O)OCc1ccccc1)C(=O)N1CCC[C@H]1C(=O)N[C@H](C(=O)C(F)(F)CNC(=O)OC(C)(C)C)C(C)C`, the figure is 1.1 nM; as for `COc1ccc(C(=O)N[C@H](C(=O)N2CCC[C@H]2C(=O)N[C@H](C(=O)C(F)(F)CN)C(C)C)C(C)C)cc1`, 15 nM; as for `CNC(=O)C(F)(F)C(=O)[C@@H](NC(=O)[C@@H]1CCCN1C(=O)[C@@H](NC(=O)c1ccc(OC)cc1)C(C)C)C(C)C`, 3.4 nM. As to `CNC(=O)C(F)(F)C(=O)[C@@H](NC(=O)[C@@H]1CCCN1C(=O)[C@@H](NC(=O)OCc1ccccc1)C(C)C)C(C)C`, affinity was put at a Ki of 3 nM. Compound `CC(C)[C@H](NC(=O)Oc1ccccc1)C(=O)N1CCC[C@H]1C(=O)N[C@H](C(=O)C(F)(F)F)C(C)C` showed a Ki of 2.3 nM. `COc1ccc(C(=O)N[C@H](C(=O)N2CCC[C@H]2C(=O)N[C@H](C(=O)C(F)(F)CNCc2ccccc2)C(C)C)C(C)C)cc1` had a Ki of 0.35 nM. In the case of `CC(C)[C@H](NC(=O)Oc1ccccc1)C(=O)N1CCC[C@H]1C(=O)N[C@H](C(=O)C(F)(F)CN)C(C)C`, the Ki turned out to be 0.81 nM.

Compound `CC(C)CC(=O)NCC(F)(F)C(=O)C(CC1CCCCC1)NC(=O)[C@@H](NC(=O)[C@H](Cc1ccccc1)NC(=O)OC(C)(C)C)C(C)C` (stereo partly specified) registered an IC50 of 3.5 nM. Regarding `COc1ccc(C(=O)N[C@H](C(=O)N2CCC[C@H]2C(=O)N[C@H](C(=O)C(F)(F)C(N)=O)C(C)C)C(C)C)cc1`, affinity was put at a Ki of 0.65 nM. As to `CC(C)[C@H](NC(=O)OCc1ccccc1)C(=O)N1CCC[C@H]1C(=O)N[C@H](C(=O)C(F)(F)CNCc1ccccc1)C(C)C`, the affinity, expressed as Ki, was 1.6 nM.

The record behind these values is ChEMBL document CHEMBL1127968, “Examination of peptidic ,-diamino-,-difluoroketones as inhibitors of human leukocyte elastase” (Bioorg Med Chem Lett, 1994).
